We go through 92 compounds from a melting point compilation (Tetko et al.; mined from patent text by program, amines drawn as free bases though some values may be those of a salt).

Molecules are shown by their SMILES.

`CC1=C(C(=O)OCCO)C(c2ccccc2C(F)(F)F)C(C(=O)OCCO)=C(C)N1` showed a melting point of 125 to 127 °C.

`N#CC1(c2ccc([N+](=O)[O-])cc2)CCCC1` came in with a melting point of 76 to 77 °C.

In turn, `CC(Oc1cc2sc(NC(=O)NCCN3CCOCC3)nc2cc1F)c1c(Cl)cccc1Cl` (configuration not stated) showed a melting point of 200 to 205 °C. As to `Cc1cc(C(=O)O)ccc1C1=CCCCC1`, the melting point fell in the range of 173 to 175 °C. Under `CCCCC(=O)Nc1ccc(C(=O)Nc2ccc3cc(CN4CCCC4)cnc3c2C)cc1` stands 206 to 207 °C; under `CCCCc1nc(C(=O)C(C)(C)C)c(C#N)[nH]1`, 135 to 137 °C.

For the compound `CCN(CC)CCNCc1ccc(C(=O)Nc2nc(-c3ccccc3)c(-c3ccc(=O)n(C(C)C)n3)s2)cc1`, the melting point fell in the range of 158 to 160 °C.

`O=C(O)CN1C(=S)c2cccc3c(Br)ccc1c23`: the melting point is 253 °C. `CC1(C)CC(OC(=O)Nc2ccccc2)CC(C)(C)N1CC(O)c1ccccc1` (configuration not stated) gave a melting point of 186 to 187 °C. Regarding `CCCCOC1OC(CO)C(O)C(O)C1(O)N(CC)C(=O)N(CCCl)N=O` (configuration not stated), the melting point lay within 87 to 89 °C. In turn, `COc1cc(O)c2c(c1)C1OC1CC(O)C(O)C(=O)C=CCC(C)OC2=O` (configuration not stated) came in with a melting point of 173 to 174 °C. In turn, `Cc1ccc(=NC(=O)C(F)(F)F)n(Cc2ccc(Cl)s2)c1` showed a melting point of 170 °C.

In the case of `COc1ccc(N)cc1Oc1ncc(Cl)cc1Cl`, the melting point was 95 to 105 °C. For the compound `O=[N+]([O-])c1c(CO)cccc1CO`, the melting point was in the range of 100 to 101 °C.

`N#Cc1c(N2CCCC2)c(F)cc2c(=O)c(C(=O)O)cn(C3CC3)c12` gave a melting point of 274 to 276 °C. Turning to `Cc1ccc(Cc2cnc(NCCCCc3ncc(Br)cc3C)[nH]c2=O)cn1`, the melting point was in the range of 151 to 152 °C. `Brc1ccsc1Cc1c[nH]cn1`: the melting point is 212 to 214 °C. Under `N#Cc1ccc(N2CCc3ccccc32)cc1` stands 88.5 to 89.5 °C. In turn, `O=c1cc(-c2ccc([N+](=O)[O-])cc2)oc2ncccc12` came in with a melting point of 261 to 263 °C. With `COC(=O)c1c2ccccc2nc2cc(Cl)ccc12`, the melting point turned out to be 148 °C.

For `CC(C)NC(=O)c1cc(Oc2ccc3c(C(=O)Nc4cccc(C(F)(F)F)c4)cccc3c2)ncn1`, the melting point was 205 to 208 °C.

As for `CC(C)C(NC(=O)[C@@H]1CCCN1C(=O)[C@@H](NC(=O)c1ccc(C(=O)N2CCOCC2)nc1)C(C)C)C(=O)C(F)(F)C(F)(F)F` (some centres not stated), the melting point is 111 to 112 °C. `Cc1ccc(C2CCc3ccccc3O2)cc1` (configuration not stated) returned a melting point of 94 °C.

The compound `CN(C)C(=O)C(C#N)=C(O)c1ccc(C(F)(F)F)cc1[N+](=O)[O-]` gave a melting point of 104 to 106 °C. Compound `Cc1cc2nc(O)nc(O)c2s1` came in with a melting point above 300 °C. The compound `CS(=O)(=O)Oc1ccc(-c2c3ccccc3cc3sc4ccccc4c23)cc1` displayed a melting point of 136 to 139 °C. In the case of `COC(=O)C1=CC(C(=O)OC)NC(=O)N1` (configuration not stated), the melting point is 177 to 179 °C. Regarding `CNc1c(F)cc2c(=O)c(C(=O)O)cn(-c3ccc(F)c(N)n3)c2c1Cl`, the melting point was 233 to 238 °C.

The compound `COc1ccc(CNc2ncccc2C(=O)Nc2cccnc2Cl)cc1` yielded a melting point of 122 to 124 °C. Under `COC(=O)c1c(C(F)F)nc(C(F)(F)F)c(C(=O)OC)c1CSC` stands 50.5 to 51.5 °C.

Take `Cc1cc(NCc2ccc3oc(-c4ccccc4C#N)c(Br)c3c2)n2nccc2n1`: the melting point lay in the range of 210 to 215 °C. Next, `O=Cc1ccc2cc[nH]c2c1`: 126 to 128 °C. As for `C=Cc1cc(CNC(=O)NCc2ccc(C(C)(C)C)cc2)cc(C)c1NS(C)(=O)=O`, the melting point lay within 105 to 107 °C. `COCCNc1nc2ccccc2n(-c2ccc(Cl)cc2)c1=O` came in with a melting point of 151 to 152 °C.

Regarding `COc1cccc2c(=O)c3c(O)cc(OCC4CS4)cc3oc12` (configuration not stated), the melting point is 187 °C.

In turn, `C=Cc1c2c(c(C)c(C)c1N1CCN(c3ccc(OC)cc3)CC1)OC(C)(C)C2` yielded a melting point of 135 to 136 °C.

On to `CCc1nn(C2CCCCC2)c2cc(C(=O)Nc3c(Cl)cncc3Cl)ccc12`, for which the melting point fell in the range of 124 to 127 °C. The compound `c1ccc(-c2ncnc3sc4c(c23)CCCC4)cc1` had a melting point of 135 to 137 °C.

Consider `O=C(O)CSC1CCCc2cc3c(cc21)OCO3` (configuration not stated), for which the melting point is 138 to 139 °C. Consider `Fc1ccc(-c2[nH]nc(C3=C[C@@H]4C[C@@H](c5ccccc5)CN4CC3)c2-c2ccncc2)cc1Cl`, for which the melting point lay within 179 to 180 °C. Next, `Cn1ncc(C(=O)N2CCOCC2)c1C(=O)Nc1ccn2nc(N3CCCC3)nc2c1`: 194 to 197 °C; `COc1cccc2c(O)cnnc12`: 160 to 163 °C. Under `N#Cc1ccc(-c2ccc(OCCCCCC(=O)NO)cc2)cc1` stands 129 °C.

In turn, `CCN(CC)CCNC(=O)c1cccc2c(=O)c(C)c(-c3cccc(Cl)c3)oc12` showed a melting point of 116 to 117 °C. Compound `CCOC(=O)c1sc(-c2ccc(C#N)cc2)nc1C` had a melting point of 144 °C. In the case of `COC(=O)CCCc1cc2nc(Cl)ccc2n1S(=O)(=O)c1ccccc1OC`, the melting point is 115 °C. Compound `Cc1ccc(NCC(=O)Nc2ccc(S(N)(=O)=O)cc2Cl)cc1` showed a melting point of 215 to 216 °C.

Turning to `COCn1ncc2cc(-c3nnc(S)o3)ccc21`, the melting point was above 300 °C. In turn, `O=C1NC(=O)C(Cc2ccc(OCCC3OCCO3)cc2)S1` (configuration not stated) had a melting point of 102 to 104 °C. `CCCc1cc(F)c2occ(C)c2c1O` showed a melting point of 53 to 54 °C. Turning to `COC(=O)c1cc(CO)nn1-c1ncccc1Cl`, the melting point is 104 °C. Under `COc1cc(O)c(C(=O)c2ccccc2)cc1S(=O)(=O)Cl` stands 165 to 172 °C; under `COC(=O)c1nc(-c2ccc(Cl)c(N(C)C)c2F)nc(N)c1C1CC1`, 156 to 158 °C; under `Cc1nnsc1C(=O)Nc1ccc(-n2nc(C3CC3)c(Cl)c2C2CC2)c(F)c1`, 153 to 156 °C. Compound `O=C(CCN1C(=O)CSC1=S)Nc1ccccc1O` returned a melting point of 168 to 170 °C. Under `COc1cc(OC)cc(N2CCN(C(=O)N(C)c3cc4ccccc4nc3OC)CC2)c1` stands 88 to 89 °C. Next, `COc1ccc(C2Sc3cc(Oc4ccc(Cl)cc4)ccc3NC(=O)C2O)cc1` (configuration not stated): 243 to 245 °C. `CC(C)(C)C12OOC1(c1cc3cc(O[Si](C)(C)C(C)(C)C)ccc3s1)OCC2(C)C` (configuration not stated) returned a melting point of 125 to 126 °C. Take `CCCCCCCCCCCCCCCc1ccc(C(=O)c2ccccc2)c(O)c1`: the melting point fell in the range of 46 to 47 °C. Under `CN(C)S(=O)(=O)c1ccc(Oc2ccc(S(C)(=O)=O)cc2)cc1` stands 128 to 130 °C. Under `Cc1c(Sc2ccccc2C(F)(F)F)c2cc(NS(C)(=O)=O)ccc2n1CC(=O)O` stands 207 °C; under `CCCN(CCC)C1CCc2ccc(NC(=O)C=NO)cc2C1` (configuration not stated), 82 to 85 °C. Next, `CCOC(=O)COc1cc2cc(C3CCCC3)sc2c(Cl)c1Cl`: 65 to 67 °C; `O=C1c2ccc(Cl)cc2CC1Br` (configuration not stated): 69 to 76 °C; `COC(=O)c1ccc(OCC(C)=O)c(C(=O)OC)c1`: 115 to 116 °C. As for `CCN(CC)CCCCC1CCCCN1CCNC(=O)N1c2ccccc2C(=O)Nc2cccnc21` (configuration not stated), the melting point was in the range of 155 to 157 °C. In turn, `O=S(=O)(c1ccc(Cl)cc1)N1CCCC1c1ccc(F)cc1` (racemic) displayed a melting point of 118 °C. `Cc1c(-c2ccccc2)sc2c(Cl)c(Cl)c(O)cc12` showed a melting point of 146 to 147 °C. Turning to `CC(=O)N1CCc2ccc(S(=O)(=O)n3c(CCCC(=O)O)cc4cc(Cl)ccc43)cc2C1`, the melting point is 95 to 97 °C. For the compound `N#Cc1c(F)c(F)c(CO)c(F)c1F`, the melting point stood at 50 °C. The compound `CSc1[nH]n(-c2c(Cl)cc(Cl)cc2Cl)c2nc(Cc3cccc(O)c3)nc(=O)c1-2` came in with a melting point of 264 to 266 °C. Turning to `Cc1cc(Nc2ncnc3ccc(-c4cccs4)cc23)ccc1OCc1ccccn1`, the melting point was 205 to 206 °C. Under `N#Cc1ccc(C2CC(n3ccnc3)c3ccccc3N2)cc1` (configuration not stated) stands 166 to 168 °C; under `CN(C)c1nc(N)c2ccccc2n1`, 141 to 142 °C. As for `CN1OCCN(c2ccc([N+](=O)[O-])c(C(F)(F)F)c2)C1=O`, the melting point was in the range of 104 to 105 °C. `O=C(Nc1ccncc1)C1=C(O)CCn2c1nc1ccccc12` showed a melting point of 274 to 276 °C.

In turn, `BrCCCSc1ccc2ncnn2n1` showed a melting point of 133 to 135 °C. Compound `CCOC(=O)c1cnn2c1c(OCC)nc1ccccc12` came in with a melting point of 88 to 90 °C. For `CCn1ncc2c(NCC3CCCCC3)c3cc(OC)ccc3nc21`, the melting point is 235 to 237 °C. Regarding `CCN(CC)S(=O)(=O)c1ccccc1S(=O)(=O)NC(=O)Nc1nc(C)cc(OC)n1`, the melting point was in the range of 170 to 172 °C. `c1ccc(CN(Cc2ccccc2)C2CCC3(CC2)OCCO3)cc1` returned a melting point above 95 °C. `Clc1cc(-c2ccc3nnn(Cc4ccc5ncccc5c4)c3n2)ccn1`: the melting point was in the range of 197 to 199 °C.

In turn, `Fc1cccc(Nc2nc(Cl)nc3nc[nH]c23)c1` gave a melting point above 250 °C. As for `COCOc1ccc(-n2nc(C(F)(F)F)cc2-c2ccc(S(C)(=O)=O)cc2)cc1`, the melting point fell in the range of 96 to 97 °C. For `Cc1ccc2[nH]c(=O)sc2c1`, the melting point lay in the range of 70 to 71 °C.

Take `Cc1c(C)c(N2CCN(c3nncs3)CC2)c(C)c2c1OC(C)C2` (configuration not stated): the melting point was 203 to 205 °C. Take `Cc1cc2c3c(c1)c1c(n3CCNC2)CCC1`: the melting point was in the range of 168 to 170 °C. The compound `O=C(CS(=O)(=O)c1ncc(Br)cn1)c1ccccc1` showed a melting point of 95 °C. Take `C=CCn1nc(-c2ccc(S(C)(=O)=O)cc2)c(-c2ccc(F)cc2)c1C(F)(F)F`: the melting point lay within 116 to 119 °C. In turn, `Cn1cc(S(C)=O)c(=O)c2ccc(Cl)cc21` (configuration not stated) showed a melting point of 245 to 247 °C. `COC(=O)c1ncoc1CCNC(=O)OCc1ccccc1`: the melting point was in the range of 68 to 70 °C. `Cc1nc2ccc(S(=O)(=O)n3c(COC(C)(C)C(=O)O)cc4cc(Cl)ccc43)cc2s1` displayed a melting point of 172 to 174 °C.

The melting point is the temperature of the solid-liquid transition.
